The results in this text go back to patent US7838706B2, “Preparation and the use of ethoxy combretastatins and their prodrugs” (priority 2006, dated 2010).

What all share (assay type): cell-based
Assay [1] concerns human umbilical vein endothelial cells (HUVEC). Briefly: In vitro neovascular inhibition evaluation. The protocol: Anti-angiogenesis effects of ethoxy combretastatins were assessed in human umbilical vein endothelial cells (HUVEC) using the same method described in Example 10.
The test system of assay [2] is Bel-7402 (human liver cancer cell). Briefly: In vitro anti-tumor activity evaluation (SRB/MTT, 72 hours). Particulars: read-out: IC50 Liver cancer Bel-7402. How it is done: (§1) The tumor cell cultured in vitro was treated with ethoxy combretastatin derivatives for 72 hours, and the MTT and SRB assays was used to evaluate its inhibition of tumor proliferation.
(§2) Cell Line: H460 (human lung cancer cell), SGC7901 (human stomach cancer cell), HT-29 (human colon cancer cell), Bel-7402 (human liver cancer cell).
(§3) Experimental Design: The cells were incubated with the compounds in various concentrations (100, 10, 1, 0.1, 0.01, 0.001 μM) for 72 hours. SRB assay was used to evaluate the inhibition effect of the compounds on cell proliferation. The inhibition rate was calculated, and IC50 was calculated by using Logit model as a function of the inhibition rate. And the anti-tumor activity of the compounds in vitro was compared.
(§4) The Inhibition Rate was Expressed Using the Following Equation: Inhibition rate (%)=[(average OD value of control group−average OD value of experimental group)/average OD value of control group]×100%.

Assay [3] concerns SGC7901 (human stomach cancer cell). Described as above. The settings on record: read-out: IC50 Stomach cancer SGC-7901. How it is done: as §1, §2, §3, §4
In assay [4] the test system is H460 (human lung cancer cell). The description is as above. Particulars: read-out: IC50 Non-small cell lung cancer H460. The protocol: as §1, §2, §3, §4
Assay [5] has as its system HT-29 (human colon cancer cell). The description is as above. The settings on record: read-out: IC50 Colon cancer HT29. How it is done: as §1, §2, §3, §4
Where [6] appears, read: Homo sapiens, read-out: IC50 HUVEC.

Each structure is given as a SMILES string. pIC50: −log10 of the molar value. Like-named read-outs stand apart in the source and are kept apart here.

A word on the pIC50: it is the IC50 on a negative log10 scale, so that one unit is a factor of ten. In the case of `CCOc1ccc(/C=C\c2cc(OC)c(OC)c(OC)c2)cc1N` [3′-Amino ethoxy combretastatin, (Z)-1-(3,4,5-trimethoxy)phenyl-2-(3′-amino-4′-ethoxy) Phenylethylene], the pIC50 in assay [1] (setting [6]) was 5.82; in assay [2] (Homo sapiens, Bel-7402, 72 h), 6.48; in assay [3] (Homo sapiens, SGC-7901, 72 h), 8.22; in assay [4] (Homo sapiens, NCI-H460, 72 h), 8.10; in assay [5] (Homo sapiens, HT-29, 72 h), 7.60.
Take `COc1ccc(/C=C\c2cc(OC)c(OC)c(OC)c2)cc1O` [CA-4, (Z)-1-(3,4,5-trimethoxy)phenyl-2-(3′-hydroxy-4′-methoxy)phenylethylene]: the pIC50 is 5.43 in assay [1] (same method as Example 10, read-out: IC50 HUVEC); 6.12 in assay [2] (Bel-7402 cells, 72 hours incubation); 8.00 in assay [3] (SGC-7901 cells, 72 hours incubation); 7.57 in assay [4] (H460 cells, 72 hours incubation); 5.62 in assay [5] (HT29 cells, 72 hours incubation).
As to `CCOc1ccc(/C=C\c2cc(OC)c(OC)c(OC)c2)cc1O` [Ethoxy combretastatin, (Z)-1-(3,4,5-trimethoxy)phenyl-2-(3′-hydroxy-4′-ethoxy) Phenylethylene], the pIC50 in assay [1] (setting [6]) was 5.66; in assay [2] (Homo sapiens, Bel-7402, 72 h), 6.21; in assay [3] (Homo sapiens, SGC-7901, 72 h), 8.10; in assay [4] (Homo sapiens, NCI-H460, 72 h), 7.96; in assay [5] (Homo sapiens, HT-29, 72 h) it was 7.33.
